Measurements taken from patent publication US12686690B2, “Macrocyclic urea orexin receptor agonists” (Merck Sharp & Dohme LLC, priority 2020, dated 2026).

Target: T1, hOX2R (Homo sapiens, UniProt O43614)
T1 construct: expressed in transfected cells; host or cells: CHO cells (G418 selection)
T1 sequence (O43614 1-444): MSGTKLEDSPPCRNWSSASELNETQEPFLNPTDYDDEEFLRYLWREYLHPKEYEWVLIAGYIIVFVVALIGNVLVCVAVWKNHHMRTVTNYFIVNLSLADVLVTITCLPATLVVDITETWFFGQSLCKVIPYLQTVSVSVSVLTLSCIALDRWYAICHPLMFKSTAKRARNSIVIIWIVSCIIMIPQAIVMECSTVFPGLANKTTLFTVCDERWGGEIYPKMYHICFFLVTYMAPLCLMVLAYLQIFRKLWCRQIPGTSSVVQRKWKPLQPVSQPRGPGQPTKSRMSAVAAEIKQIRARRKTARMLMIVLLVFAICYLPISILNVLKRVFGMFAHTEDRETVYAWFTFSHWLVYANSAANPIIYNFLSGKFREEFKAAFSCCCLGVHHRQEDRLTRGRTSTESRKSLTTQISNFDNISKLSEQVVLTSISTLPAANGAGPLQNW
Experiment: hOX2R IPone assay (orexin receptor agonism)
Type: cell-based
Conditions: IPone readout; for hOX2R_Ipone max %act: maximal activation; for EC50: orexin receptor agonist, read-out: hOX2R_IPone EC50

Row | Structure (SMILES) | hOX2R_Ipone max %act [%] | EC50 [nM]
1 | CCN1C(=O)NCCCN2CCCC2COc2nc(cn3ccnc23)-c2cccc(c2)[C@H]1C (mixture of isomers) [Example 4, (12R)-13-ethyl-12-methyl-12,13,15,16,17,18,21,22,22a, 23-decahydro-14H,20H-6,25-(azeno)-11,7-(metheno)imidazo[1,2-s]pyrrolo[2,1-c][1,4,8,10,19]oxatetraaza-cyclohenicosin-14-one] | 79.4 | 3840
2 | CCN1C(=O)NCCN2CCCC(C2)Oc2nc(cn3ccnc23)-c2cccc(c2)[C@H]1C (mixture of isomers) [Example 5, (7R)-8-ethyl-7-methyl-18-oxa-8,10,13,21,24,26-hexaazapentacyclo[17.6.1.1~ 2,6~.1~13,17~.0~20,24~] octacosa-1(25),2(28),3,5,19(26),20,22-heptaen-9-one (non-preferred name)] | 93.82 | 1380
3 | CCN1C(=O)NCCN(C)CCC(C)Oc2nc(cn3ccnc23)-c2cccc(c2)[C@H]1C (mixture of isomers) [Example 16, (12R)-13-ethyl-12,18,21-trimethyl-12,13, 16,17,18,19,20,21-octahydro-6,23-(azeno)-11,7-(metheno) imidazo[2,1-c][1,4,13,15,18]oxa-tetraazacyclo-henicosin-14(15H)-one] | 77.7 | 3880
4 | CCN1C(=O)NC(C)CCCCCOc2nc(cn3ccnc23)-c2cccc(c2)[C@H]1C (mixture of isomers) [Example 18, (12R)-13-ethyl-12,16-dimethyl-12,13,16,17,18,19, 20,21-octahydro-6,23-(azeno)-11,7-(metheno) imidazo[2,1-c][1,4,13,15]oxatriaza-cyclohenicosin-14(15H)-one] | 98.6 | 26.6
5 | CCN1C(=O)NC(c2ccon2)CCCCCOc2nc(cn3ccnc23)-c2cccc(c2)[C@H]1C (mixture of isomers) [Example 20, (12R)-13-ethyl-12-methyl-16-(1,2-oxazol-3-yl)-12,13,16,17,18,19, 20,21-octahydro-6,23-(azeno)-11,7-(metheno) imidazo[2,1-c][1,4,13,15]oxa-triazacyclohenicosin-14(15H)-one] | 98.31 | 9.5
6 | CCN1C(=O)NC(COCC(F)F)CCCCCOc2nc(cn3ccnc23)-c2cc(ncc2OC)[C@H]1C (mixture of isomers) [Example 190, (3R,E)-7-((2,2-difluoroethoxy)methyl)-4-ethyl-25-methoxy-3-methyl-13-oxa-4,6-diaza-1(6,8)-imidazo[1,2-a]pyrazina-2(4,2)-pyridinacyclotridecaphan-5-one] | 101.7 | 0.61
7 | CCN1C(=O)N[C@@H](CCC(F)(F)F)CCCCCOc2cc(cc3ccnn23)-n2nc(cc2C2CC2)C1C (mixture of isomers) [Example 210, (16E,22E,7R)-25-cyclopropyl-4-ethyl-3-methyl-7-(3,3,3-trifluoropropyl)-21H-13-oxa-4,6-diaza-1(5,7)-pyrazolo[1,5-a]pyridina-2(1,3)-pyrazolacyclotridecaphan-5-one] | 102.8 | 5.24
8 | CCN1C(=O)NC2CN(CCCOc3nc(cn4ccnc34)-c3cccc(c3)[C@H]1C)CC2(F)F (mixture of isomers) [Example 213, (3R,E)-4-ethyl-7^4,7^4-difluoro-3-methyl-11-oxa-4,6-diaza-1(6,8)-imidazo[1,2-a]pyrazina-7(3,1)-pyrrolidina-2(1,3)-benzenacycloundecaphan-5-one] | 101.8 | 6.44
9 | CCN1C(=O)NCCC2CCC(C2)Oc2nc(cn3ccnc23)-c2cccc(c2)[C@H]1C (single isomer, unassigned) [Example 1A] | 92.5 | 1050
10 | CCN1C(=O)NC(CCC(F)(F)F)CCOCCOc2nc(cn3ccnc23)-c2cc(ncc2OC)[C@H]1C (single isomer, unassigned) [Example 6A] | 103.5 | 11.9
